From US11136315B2, “CXCR2 antagonist” (MEDSHINE DISCOVERY INC., priority 2018, dated 2021)

Columns and labels:
[1] = Pharmacokinetic and tissue distribution in Lewis rats; format: in vivo; conditions: male, rat, lung / plasma, oral, 5 mg/kg, gavage 5 mpk, read-out: Ratio in lung blood
Protocol: The pharmacokinetic and tissue distribution of the compounds in Lewis rats was tested.
Lewis rats (male, 202-239 g, 7-9 weeks old, Beijing Viton Lihua)
Formulations containing an aqueous solution of 1% hydroxypropyl methylcellulose/0.2% Tween 80 as the vehicle were administered by gavage (5 mpk). Before the animal experiment, all animals were fasted overnight, and fed 4 hours after administration; all animals were free to drink water. The time points of blood collection: danirixin administration group: 0.25, 1, 8 hours; gavage administration group: 0.5, 1, 4 hours.
(§1) Whole blood samples (0.2 mL) were collected through the saphenous vein (or other suitable blood collection sites) at the prescribed time points, and all blood samples were added to labeled plastic centrifuge tubes containing K2-EDTA anticoagulant. After the blood samples were collected, the plasma was separated by centrifugation, immediately placed in dry ice and stored at low temperature. All samples were analyzed by LC-MS/MS with a minimum detection limit of 2 nM. The non-compartmental model of WinNonlin™ Version 6.3 (Pharsight, Mountain View, Calif.) pharmacokinetic software was used to process the mean plasma concentration, and the log-linear trapezoid method was used to calculate the pharmacokinetic parameters.

[2] = Pharmacokinetic evaluation in C57BL/6 mice; format: in vivo; conditions: male, mouse, plasma
Protocol: The pharmacokinetic parameters of the compounds in C57BL/6 mice were investigated.
C57BL/6 mice (male, 18-30 g, 7-9 weeks old, Shanghai Lingchang Biotechnology Co., Ltd.)
Formulations containing an aqueous solution of 1% DMSO/10% hydroxypropyl-β-cyclodextrin as the vehicle were administered by intravenous injection (1 mpk), formulations containing an aqueous solution of 1% DMSO/1% hydroxypropyl methylcellulose/0.2% Tween 80 as the vehicle were administered by gavage (5 mpk). Before the animal experiment, all animals were fasted, and fed 4 hours after administration; all animals were free to drink water. The time points of blood collection: intravenous injection administration group: 0.083, 0.25, 0.5, 1, 2, 4, 6, 8 and 24 hours; gavage administration group: 0.25, 0.5, 1, 2, 4, 6, 8 and 24 hours.
as §1, with “(0.03” for “(0.2”, “isolated” for “separated”, “linear-log” for “log-linear”

PPE-induced COPD model = assay: Therapeutic effect on PPE-induced COPD model, flow cytometry of inflammatory cells; format: in vivo, C57BL/6 mice; conditions: PPE-induced mouse COPD model, daily gavage 4 weeks, high dose (120 mpk)
Protocol: The therapeutic effect of the compounds on PPE-induced COPD model in C57BL/6 mice was tested. Animals: C57BL/6 mice (female, 17.5-18.5 g, 6-8 weeks old) Drugs: Porcine pancreas elastase (PPE) (sigma, 0.068 U/μL); compound 1 in FIG. 1, FIG. 2 and FIG. 3 is danirixin; compound 2 is WX006A. Grouping: (1) COPD model group (porcine pancreatic elastase model group) • (2) PPE+ danirixin (40 mpk) • (3) PPE+ danirixin (120 mpk) • (4) PPE+WX006A (4 mpk) • (5) PPE+WX006A (12 mpk) 1. Modeling method: PPE was administered through by drip transfusion at the back of the tongue. 2. Administration method: an aqueous solution of 1% DMSO/1% hydroxypropyl methylcellulose/0.2% Tween 80 was used as the vehicle; the animals were daily administered with a volume of 200 μL/animal by gavage for 4 weeks. 3. End point of the experiment: On the 29th day, the mice were euthanized, samples were collected, and flow cytometry was performed. The blood, alveolar lavage fluid and lung tissue of the mice were collected after 4 weeks of administration to determine the percentage of inflammatory cells. 1) Alveolar lavage cells: the mice were euthanized. […] 3) The cells were counted and the cell suspensions were transferred into flow cytometry tubes. […] 5) After washing the cells, the percentage of neutrophils and monocytes in CD45^+ cells was determined using a flow cytometer.

Kp [1]: 1.57
clearance ([2]; intravenous 1 mpk / gavage 5 mpk study): 42.5 mL/min/kg
half-life ([2]; intravenous 1 mpk / gavage 5 mpk study, read-out: Half-life T1/2 (converted)): 7.43 h
AUC ([2]; intravenous 1 mpk / gavage 5 mpk study, route not stated, unit printed shifted under first column, read-out: Area under the drug concentration time curve (AUC)): 1.58 µM·h
bioavailability ([2]; po, 5 mg/kg, gavage 5 mpk vs intravenous 1 mpk, read-out: Bioavailability (F)): 34.3%
SMILES: Cc1c(F)cccc1NC(=O)Nc1ccc(Cl)c(S(=O)(=O)[C@H]2CCCNC2)c1O [Danirixin, danirixin, reference compound]
proportion of monocytes in the alveolar lavage fluid (PPE-induced COPD model): significant effect of reducing
proportion of neutrophils in the alveolar lavage fluid (PPE-induced COPD model): significant effect of reducing
